Laboratory results taken from patent US9999609B2, “Methods for treating or preventing fatigue” (SK Biopharmaceuticals Co., Ltd., priority 2009, dated 2018).

Columns and labels:
Type in all cases: in vivo
[1] = system: male adult Sprague Dawley rats; assay: Sleep-wake organization (EEG/EOG/EMG) in rats after acute i.p. administration; conditions: rats, mean ± s.e.m of 8 rats; for Duration Active wake / Duration Deep sleep / Duration Intemediate stage / Duration Light sleep / Duration Passive wake / Duration REM sleep: 16 h recording
[2] = system: C57BL/6J, AKR/J and DBA/2J mice; assay: Sleep onset and vigilance states in three inbred mouse strains after IP injection
Procedure: At least 7 adult male mice of inbred strains C57BL/6J, AKR/J, and DBA/2J were recorded in 2 sessions of 72 continuous hours. The first 24 h in each session are considered as baseline followed the next day by the saline injection and the next day by 150 mg/kg of the test compound in the first session and 5 mg/kg d-amphetamine in the second session. The two sessions were separated by 7 days (wash-out period) and all injections were intraperitoneal (IP) and performed at light onset (9 am) in a volume of 5 ml/kg.

[3] = system: hypocretin cell ablated narcoleptic mice (prepororexin/ataxin-3 transgenic) and their littermate wild-type mice; assay: Sleep parameters (EEG/EMG polygraph) in narcoleptic and wild-type mice after oral dosing
Excerpt: The polygraph signal (EEG and EMG) was captured with SleepSign (Kissei Comtech), and the sleep stage was visually scored with 10 sec epoch for wakefulness, non-REM sleep and REM sleep. Scoring criteria are: Wakefulness is characterized by desynchronized low-amplitude, mixed frequency (>4 Hz) EEG and high EMG activity. Rhythmic alpha (8-9 Hz) wave (with high EMG activities) may also appear. Non-REM is characterized by synchronized, high-amplitude, low-frequency (0.25-4 Hz) with reduced EMG activity (compared to wakefulness). EEG activity in REM sleep is similar to that in wakefulness, with desynchronized, mixed frequency low amplitude waves. Rhythmic alpha (8-9 Hz) wave with reduced EMG activities may also appear. […] is reduced even further and in many cases, completely absent. Same muscle twitching may be apparent in the EMG trace during REM sleep.
Three drug doses of the test compound (50, 100 and 150 mg/kg PO) plus vehicle, were orally administered at ZT 2 (2 hours after light on) or ZT14 (2 hours after light off), and the effects on sleep were monitored for 6 hours after the drug administration (the sleep data was collected for 30 hours after the drug injection, and are available for further analysis). The doses for modafinil were 50 and 200 mg/kg PO (plus vehicle), and modafinil was also administered at ZT 2 and […]
If the polygraph signals of some mice were not sufficient to score the sleep stage with accuracy (especially bad EMG), data from these animals were excluded, and the minimum of 5 animals (except for the highest dose of the test compound in wild-type mice in dark period, n=4) were included for the data analysis and number of animals were indicated in the figures.
Effects of test compound and modafinil on the amount of wake, non-REM sleep, REM sleep (cumulative seconds), number of episodes for each sleep stage during 6 hours, and mean wake/sleep-bout lengths (seconds) were analyzed in each animal and the mean of each parameter was calculated in each genotype. The effects of compounds on wake and sleep amounts are useful to evaluate the wake promoting potency, and the number of episodes for each sloop stage and the mean wake/sleep bout length are parameters for evaluating the sleep fragmentation. Amphetamine and modafinil, two main wake-promoting compounds currently used for the treatment of EDS associated with various etiologies (narcolepsy, idiopathic hypersomnia and secondary EDS), are known to increase wake time and prolong wake bout length in normal and EDS conditions.
A comparison of the effects between hypocretin deficient and wild-type mice is very useful in determining the wake-promotion of the test compound is dependent on the availability of hypocretins, and if there is a possible change in the sensitivity of the receptive mechanisms of test compound in narcoleptic mice due to the hypocretin ligand deficiency.

[4] = system: adult human subjects with moderate or severe major depression without psychotic features; assay: Randomized double-blind placebo- and active-controlled 6-week study in major depression; conditions: 20 mg/day
Excerpt: This was a randomized, double-blind, parallel-group, active, and placebo-controlled, multicenter study conducted in the U.S. (23 centers) and Canada (4 centers). There were 2 phases: a pretreatment phase (screening/washout and a baseline visit) and a 6-week, double-blind treatment phase. Paroxetine, a positive control, was included to evaluate assay sensitivity. After washout (if needed) of prohibited substances, subjects were randomly assigned (1:1:1:1) to receive the test compound titrated to a target dose of 200 mg/day or 400 mg/day, matching placebo, or a fixed dose (20 mg/day) of paroxetine. Study drug was given twice daily for 6 weeks. Efficacy and safety were assessed weekly during the double-blind phase. Subjects completing the study underwent an Exit Interview (“Your Health and Well-Being”) and completed an Assessment of Benefits of Clinical-trial Drug-treatment (ABCD) questionnaire (U.S. sites only).

CC(N)Cc1ccccc1 (stereo not shown) [Amphetamine, amphetamine]
Duration Active wake ([1]; 1 mg/kg i.p.): 382.4 ± 19.6 min | Duration Deep sleep ([1]; 1 mg/kg i.p.): 188.0 ± 19.6 min | Duration Intemediate stage ([1]; 1 mg/kg i.p.): 4.0 ± 19.6 min | Duration Light sleep ([1]; 1 mg/kg i.p.): 242.7 ± 19.6 min | Duration Passive wake ([1]; 1 mg/kg i.p.): 50.0 ± 19.6 min | Duration REM sleep ([1]; 1 mg/kg i.p.): 88.6 ± 19.6 min | Latency ISWS ([1]; 1 mg/kg i.p.): 140.6 ± 13.4 min | Latency REM sleep ([1]; 1 mg/kg i.p.): 208.6 ± 14.4 min | Latency dSWS ([1]; 1 mg/kg i.p.): 161.7 ± 5.3 min | Shifts: Shift from ISWS to AW ([1]; 1 mg/kg i.p.): 198.8 ± 50.1 number | Shifts: Shift from ISWS to PW ([1]; 1 mg/kg i.p.): 64.4 ± 30.5 number | Shifts: Shift from REMS to AW ([1]; 1 mg/kg i.p.): 66.5 ± 19.1 number | Shifts: Shift from REMS to PW ([1]; 1 mg/kg i.p.): 5.8 ± 4.8 number | Shifts: Shift from dSWS to AW ([1]; 1 mg/kg i.p.): 11.7 ± 7.2 number | Shifts: Shift from dSWS to PW ([1]; 1 mg/kg i.p.): 37.7 ± 30.0 number | Duration Active wake ([1]; 3 mg/kg i.p.): 441.8 ± 15.7 min | Duration Deep sleep ([1]; 3 mg/kg i.p.): 207.6 ± 17.7 min | Duration Intemediate stage ([1]; 3 mg/kg i.p.): 4.0 ± 1.0 min | Duration Light sleep ([1]; 3 mg/kg i.p.): 187.9 ± 23.9 min | Duration Passive wake ([1]; 3 mg/kg i.p.): 43.5 ± 4.4 min | Duration REM sleep ([1]; 3 mg/kg i.p.): 71.4 ± 4.1 min | Latency ISWS ([1]; 3 mg/kg i.p.): 228.2 ± 25.0 min | Latency REM sleep ([1]; 3 mg/kg i.p.): 338.6 ± 24.3 min | Latency dSWS ([1]; 3 mg/kg i.p.): 242.0 ± 19.4 min | Shifts: Shift from ISWS to AW ([1]; 3 mg/kg i.p.): 178.7 ± 46.6 number | Shifts: Shift from ISWS to PW ([1]; 3 mg/kg i.p.): 62.4 ± 26.1 number | Shifts: Shift from REMS to AW ([1]; 3 mg/kg i.p.): 59.3 ± 17.8 number | Shifts: Shift from REMS to PW ([1]; 3 mg/kg i.p.): 3.3 ± 2.6 number | Shifts: Shift from dSWS to AW ([1]; 3 mg/kg i.p.): 14.8 ± 7.8 number | Shifts: Shift from dSWS to PW ([1]; 3 mg/kg i.p.): 26.6 ± 16.8 number | Duration Active wake ([1]; 10 mg/kg i.p.): 498.7 ± 19.0 min | Duration Deep sleep ([1]; 10 mg/kg i.p.): 181.2 ± 22.0 min | Duration Intemediate stage ([1]; 10 mg/kg i.p.): 4.0 ± 1.0 min | Duration Light sleep ([1]; 10 mg/kg i.p.): 182.0 ± 26.3 min | Duration Passive wake ([1]; 10 mg/kg i.p.): 35.6 ± 4.7 min | Duration REM sleep ([1]; 10 mg/kg i.p.): 53.6 ± 5.0 min | Latency ISWS ([1]; 10 mg/kg i.p.): 284.7 ± 56.1 min | Latency REM sleep ([1]; 10 mg/kg i.p.): 440.8 ± 57.8 min | Latency dSWS ([1]; 10 mg/kg i.p.): 367.3 ± 5.5 min | Shifts: Shift from ISWS to AW ([1]; 10 mg/kg i.p.): 201.7 ± 66.1 number | Shifts: Shift from ISWS to PW ([1]; 10 mg/kg i.p.): 49.0 ± 25.5 number | Shifts: Shift from REMS to AW ([1]; 10 mg/kg i.p.): 50.0 ± 16.2 number | Shifts: Shift from REMS to PW ([1]; 10 mg/kg i.p.): 2.2 ± 1.9 number | Shifts: Shift from dSWS to AW ([1]; 10 mg/kg i.p.): 9.7 ± 5.9 number | Shifts: Shift from dSWS to PW ([1]; 10 mg/kg i.p.): 11.6 ± 8.9 number

COC(=O)[C@H]1[C@@H](OC(=O)c2ccccc2)C[C@@H]2CC[C@H]1N2C [Cocaine, cocaine]
Duration Active wake ([1]; 1 mg/kg i.p.): 331.5 ± 41.5 min | Duration Deep sleep ([1]; 1 mg/kg i.p.): 162.9 ± 26.3 min | Duration Intemediate stage ([1]; 1 mg/kg i.p.): 6.7 ± 1.0 min | Duration Light sleep ([1]; 1 mg/kg i.p.): 293.2 ± 26.3 min | Duration Passive wake ([1]; 1 mg/kg i.p.): 69.8 ± 11.0 min | Duration REM sleep ([1]; 1 mg/kg i.p.): 84.2 ± 8.1 min | Latency ISWS ([1]; 1 mg/kg i.p.): 69.9 ± 51.2 min | Latency REM sleep ([1]; 1 mg/kg i.p.): 74.3 ± 12.1 min | Latency dSWS ([1]; 1 mg/kg i.p.): 79.3 ± 26.7 min | Shifts: Shift from ISWS to AW ([1]; 1 mg/kg i.p.): 184.1 ± 48.1 number | Shifts: Shift from ISWS to PW ([1]; 1 mg/kg i.p.): 128.6 ± 45.2 number | Shifts: Shift from REMS to AW ([1]; 1 mg/kg i.p.): 74.5 ± 21.5 number | Shifts: Shift from REMS to PW ([1]; 1 mg/kg i.p.): 17.0 ± 8.8 number | Shifts: Shift from dSWS to AW ([1]; 1 mg/kg i.p.): 10.1 ± 5.6 number | Shifts: Shift from dSWS to PW ([1]; 1 mg/kg i.p.): 66.6 ± 48.2 number | Duration Active wake ([1]; 3 mg/kg i.p.): 324.8 ± 18.3 min | Duration Deep sleep ([1]; 3 mg/kg i.p.): 172.6 ± 34.3 min | Duration Intemediate stage ([1]; 3 mg/kg i.p.): 5.7 ± 0.6 min | Duration Light sleep ([1]; 3 mg/kg i.p.): 303.2 ± 42.5 min | Duration Passive wake ([1]; 3 mg/kg i.p.): 66.7 ± 8.9 min | Duration REM sleep ([1]; 3 mg/kg i.p.): 76.7 ± 6.3 min | Latency ISWS ([1]; 3 mg/kg i.p.): 41.5 ± 9.2 min | Latency REM sleep ([1]; 3 mg/kg i.p.): 112.0 ± 12.2 min | Latency dSWS ([1]; 3 mg/kg i.p.): 68.6 ± 7.6 min | Shifts: Shift from ISWS to AW ([1]; 3 mg/kg i.p.): 218.5 ± 50.6 number | Shifts: Shift from ISWS to PW ([1]; 3 mg/kg i.p.): 142.2 ± 48.5 number | Shifts: Shift from REMS to AW ([1]; 3 mg/kg i.p.): 56.0 ± 16.4 number | Shifts: Shift from REMS to PW ([1]; 3 mg/kg i.p.): 10.7 ± 6.9 number | Shifts: Shift from dSWS to AW ([1]; 3 mg/kg i.p.): 10.2 ± 6.7 number | Shifts: Shift from dSWS to PW ([1]; 3 mg/kg i.p.): 64.5 ± 42.6 number | Duration Active wake ([1]; 10 mg/kg i.p.): 347.3 ± 16.5 min | Duration Deep sleep ([1]; 10 mg/kg i.p.): 171.9 ± 23.8 min | Duration Intemediate stage ([1]; 10 mg/kg i.p.): 6.3 ± 1.1 min | Duration Light sleep ([1]; 10 mg/kg i.p.): 294.6 ± 24.4 min | Duration Passive wake ([1]; 10 mg/kg i.p.): 55.0 ± 10.4 min | Duration REM sleep ([1]; 10 mg/kg i.p.): 74.7 ± 7.5 min | Latency ISWS ([1]; 10 mg/kg i.p.): 101.8 ± 6.9 min | Latency REM sleep ([1]; 10 mg/kg i.p.): 192.1 ± 18.5 min | Latency dSWS ([1]; 10 mg/kg i.p.): 138.8 ± 8.7 min | Shifts: Shift from ISWS to AW ([1]; 10 mg/kg i.p.): 201.2 ± 53.6 number | Shifts: Shift from ISWS to PW ([1]; 10 mg/kg i.p.): 132.6 ± 48.2 number | Shifts: Shift from REMS to AW ([1]; 10 mg/kg i.p.): 52.3 ± 16.5 number | Shifts: Shift from REMS to PW ([1]; 10 mg/kg i.p.): 9.2 ± 5.8 number | Shifts: Shift from dSWS to AW ([1]; 10 mg/kg i.p.): 10.4 ± 6.2 number | Shifts: Shift from dSWS to PW ([1]; 10 mg/kg i.p.): 37.6 ± 23.8 number

C[C@H](N)Cc1ccccc1 [d-amphetamine]
amount of wakefulness compared with 150 mg/kg test compound ([2]; 5 mg/kg IP): failed to induce the same amount of wakefulness as 150 mg/kg of test compound | genotype effect on induced wakefulness (AK vs D2 mice) ([2]; 5 mg/kg IP): genotype-dependent effect | dose-response of induced wakefulness (sleep latency) ([2]; C57BL/6J mice, 1, 2, 4, 5, 8 mg/kg IP): dose-dependent manner between 1 and 5 mg/kg

NC(=O)C[S+]([O-])C(c1ccccc1)c1ccccc1 (stereo not shown) [modafinil]
effect on wakefulness ([3]; active (dark) period, ZT14, PO): dose-dependently increased wakefulness | wake amount in narcoleptic mice relative to wild-type baseline ([3]; active period, 200 mg/kg PO): did not bring the wake amount to that of the wild-type baseline levels | dose of test compound whose wake promoting effect corresponds to 200 mg/kg of modafinil ([3]; resting period, PO): ~50 mg/kg | effect on REM sleep ([3]; resting period, PO): did not strongly reduce REM sleep | wake-promoting effects ([3]; resting period, wild-type and hypocretin-deficient narcoleptic mice, PO): modest

Fc1ccc([C@@H]2CCNC[C@H]2COc2ccc3c(c2)OCO3)cc1 [paroxetine]
Insomnia, treatment-emergent adverse event incidence ([4]; 6 weeks): 17% | ABCD questionnaire items (of 51) with statistically significant superiority to placebo ([4]; post hoc analyses): 14 items
